# Laboratory results reported in ChEMBL document CHEMBL1909046, “DrugMatrix in vitro pharmacology data”.
# System: not listed separately
# Assay: DRUGMATRIX: Glutamate, NMDA, Phencyclidine radioligand binding (ligand: [3H] TCP)
# Assay type: cell membranes, Rattus norvegicus, Wistar, Cerebral cortex, Membrane
# Details: Not Active = under 50% inhibition at 10 µM
Compound,IC50,Ki
C[C@H]1COc2c(N3CCN(C)CC3)c(F)cc3c(=O)c(C(=O)O)cn1c23.C[C@H]1COc2c(N3CCN(C)CC3)c(F)cc3c(=O)c(C(=O)O)cn1c23.O [LEVOFLOXACIN],Not Active,Not Active
CCn1cc(C(=O)O)c(=O)c2cc(F)c(N3CCNC(C)C3)c(F)c21 (configuration not stated) [LOMEFLOXACIN],Not Active,Not Active
CN(C)C(=N)NC(=N)N [METFORMIN],Not Active,Not Active
CN(C)C(=O)Oc1cccc([N+](C)(C)C)c1.[Br-] [NEOSTIGMINE BROMIDE],Not Active,Not Active
CN1C(=O)CN=C(c2ccccc2)c2cc([N+](=O)[O-])ccc21 [NIMETAZEPAM],Not Active,Not Active
COc1ccc2c(c1OC)C(=O)O[C@@H]2[C@H]1c2c(cc3c(c2OC)OCO3)CCN1C [NOSCAPINE],Not Active,Not Active
N=C(N)c1ccc(OCCCCCOc2ccc(C(=N)N)cc2)cc1 [PENTAMIDINE],Not Active,Not Active
NNCCc1ccccc1 [PHENELZINE],Not Active,Not Active
CCCNC(C)C(=O)Nc1ccccc1C (configuration not stated) [PRILOCAINE],Not Active,Not Active
C[C@]12C=CC(=O)C=C1CC[C@H]1[C@@H]3C[C@@H](O)[C@](O)(C(=O)CO)[C@@]3(C)C[C@H](O)[C@@]12F [TRIAMCINOLONE],Not Active,Not Active
CCN(C(C)=O)c1cccc(-c2ccnc3c(C#N)cnn23)c1 [ZALEPLON],Not Active,Not Active

# Same assay, conditions: Not Active = under 50% inhibition at 10 µM; read-out: IC50
row,Compound,IC50
1,NC12CC3CC(CC(C3)C1)C2 [AMANTADINE],32 µM

# Same assay, conditions: Not Active = under 50% inhibition at 10 µM; read-out: Ki
row,Compound,Ki
1,NC12CC3CC(CC(C3)C1)C2 [AMANTADINE],21.7 µM

# Biological target: Delta-type opioid receptor (Homo sapiens, UniProt P41143); further: in other assays of this panel Not Active means under 50% inhibition at 10 µM
# Assay type: cell membranes, HEK293, Membrane
# Details: hek293
# Sequence of Delta-type opioid receptor (P41143 whole entry): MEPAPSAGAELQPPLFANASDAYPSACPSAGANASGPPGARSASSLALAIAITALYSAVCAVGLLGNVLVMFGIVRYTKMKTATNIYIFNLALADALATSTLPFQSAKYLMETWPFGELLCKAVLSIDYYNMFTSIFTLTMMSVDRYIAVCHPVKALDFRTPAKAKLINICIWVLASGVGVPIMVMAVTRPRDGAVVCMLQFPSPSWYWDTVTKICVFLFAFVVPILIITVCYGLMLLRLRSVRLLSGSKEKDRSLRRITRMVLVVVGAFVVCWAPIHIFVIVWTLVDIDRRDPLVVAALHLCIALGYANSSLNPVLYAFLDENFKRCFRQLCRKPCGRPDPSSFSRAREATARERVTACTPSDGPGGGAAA
row,Compound,IC50
1,NC12CC3CC(CC(C3)C1)C2 [AMANTADINE],Not Active
2,C[C@H]1COc2c(N3CCN(C)CC3)c(F)cc3c(=O)c(C(=O)O)cn1c23.C[C@H]1COc2c(N3CCN(C)CC3)c(F)cc3c(=O)c(C(=O)O)cn1c23.O [LEVOFLOXACIN],Not Active
3,CCn1cc(C(=O)O)c(=O)c2cc(F)c(N3CCNC(C)C3)c(F)c21 (configuration not stated) [LOMEFLOXACIN],Not Active
4,CN(C)C(=N)NC(=N)N [METFORMIN],Not Active
5,CN(C)C(=O)Oc1cccc([N+](C)(C)C)c1.[Br-] [NEOSTIGMINE BROMIDE],Not Active
6,CN1C(=O)CN=C(c2ccccc2)c2cc([N+](=O)[O-])ccc21 [NIMETAZEPAM],Not Active
7,COc1ccc2c(c1OC)C(=O)O[C@@H]2[C@H]1c2c(cc3c(c2OC)OCO3)CCN1C [NOSCAPINE],Not Active
8,N=C(N)c1ccc(OCCCCCOc2ccc(C(=N)N)cc2)cc1 [PENTAMIDINE],Not Active
9,NNCCc1ccccc1 [PHENELZINE],Not Active
10,CCCNC(C)C(=O)Nc1ccccc1C (configuration not stated) [PRILOCAINE],Not Active
11,C[C@]12C=CC(=O)C=C1CC[C@H]1[C@@H]3C[C@@H](O)[C@](O)(C(=O)CO)[C@@]3(C)C[C@H](O)[C@@]12F [TRIAMCINOLONE],Not Active
12,CCN(C(C)=O)c1cccc(-c2ccnc3c(C#N)cnn23)c1 [ZALEPLON],Not Active

# System: not listed separately
# Assay: DRUGMATRIX: Leukotriene, BLT (LTB4) radioligand binding (ligand: [3H]LTB4)
# Assay type: cell membranes, Membrane
# Details: u-937; Not Active = under 50% inhibition at 10 µM
Compound,IC50,Ki
NC12CC3CC(CC(C3)C1)C2 [AMANTADINE],Not Active,Not Active
C[C@H]1COc2c(N3CCN(C)CC3)c(F)cc3c(=O)c(C(=O)O)cn1c23.C[C@H]1COc2c(N3CCN(C)CC3)c(F)cc3c(=O)c(C(=O)O)cn1c23.O [LEVOFLOXACIN],Not Active,Not Active
CCn1cc(C(=O)O)c(=O)c2cc(F)c(N3CCNC(C)C3)c(F)c21 (configuration not stated) [LOMEFLOXACIN],Not Active,Not Active
CN(C)C(=N)NC(=N)N [METFORMIN],Not Active,Not Active
CN(C)C(=O)Oc1cccc([N+](C)(C)C)c1.[Br-] [NEOSTIGMINE BROMIDE],Not Active,Not Active
CN1C(=O)CN=C(c2ccccc2)c2cc([N+](=O)[O-])ccc21 [NIMETAZEPAM],Not Active,Not Active
COc1ccc2c(c1OC)C(=O)O[C@@H]2[C@H]1c2c(cc3c(c2OC)OCO3)CCN1C [NOSCAPINE],Not Active,Not Active
NNCCc1ccccc1 [PHENELZINE],Not Active,Not Active
CCCNC(C)C(=O)Nc1ccccc1C (configuration not stated) [PRILOCAINE],Not Active,Not Active
C[C@]12C=CC(=O)C=C1CC[C@H]1[C@@H]3C[C@@H](O)[C@](O)(C(=O)CO)[C@@]3(C)C[C@H](O)[C@@]12F [TRIAMCINOLONE],Not Active,Not Active
CCN(C(C)=O)c1cccc(-c2ccnc3c(C#N)cnn23)c1 [ZALEPLON],Not Active,Not Active

# Same assay, conditions: u-937; Not Active = under 50% inhibition at 10 µM; read-out: IC50
row,Compound,IC50
1,N=C(N)c1ccc(OCCCCCOc2ccc(C(=N)N)cc2)cc1 [PENTAMIDINE],0.242 µM

# Same assay, conditions: u-937; Not Active = under 50% inhibition at 10 µM; read-out: Ki
row,Compound,Ki
1,N=C(N)c1ccc(OCCCCCOc2ccc(C(=N)N)cc2)cc1 [PENTAMIDINE],0.061 µM

# Biological target: T1, Angiotensin-converting enzyme (Oryctolagus cuniculus, UniProt P12822);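 further: enzymatic inhibition of angiotensin-converting enzyme measured with FAPGG as the substrate; in other assays of this panel Not Active means under 50% inhibition at 10 µM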
# T1 sequence (P12822 whole entry): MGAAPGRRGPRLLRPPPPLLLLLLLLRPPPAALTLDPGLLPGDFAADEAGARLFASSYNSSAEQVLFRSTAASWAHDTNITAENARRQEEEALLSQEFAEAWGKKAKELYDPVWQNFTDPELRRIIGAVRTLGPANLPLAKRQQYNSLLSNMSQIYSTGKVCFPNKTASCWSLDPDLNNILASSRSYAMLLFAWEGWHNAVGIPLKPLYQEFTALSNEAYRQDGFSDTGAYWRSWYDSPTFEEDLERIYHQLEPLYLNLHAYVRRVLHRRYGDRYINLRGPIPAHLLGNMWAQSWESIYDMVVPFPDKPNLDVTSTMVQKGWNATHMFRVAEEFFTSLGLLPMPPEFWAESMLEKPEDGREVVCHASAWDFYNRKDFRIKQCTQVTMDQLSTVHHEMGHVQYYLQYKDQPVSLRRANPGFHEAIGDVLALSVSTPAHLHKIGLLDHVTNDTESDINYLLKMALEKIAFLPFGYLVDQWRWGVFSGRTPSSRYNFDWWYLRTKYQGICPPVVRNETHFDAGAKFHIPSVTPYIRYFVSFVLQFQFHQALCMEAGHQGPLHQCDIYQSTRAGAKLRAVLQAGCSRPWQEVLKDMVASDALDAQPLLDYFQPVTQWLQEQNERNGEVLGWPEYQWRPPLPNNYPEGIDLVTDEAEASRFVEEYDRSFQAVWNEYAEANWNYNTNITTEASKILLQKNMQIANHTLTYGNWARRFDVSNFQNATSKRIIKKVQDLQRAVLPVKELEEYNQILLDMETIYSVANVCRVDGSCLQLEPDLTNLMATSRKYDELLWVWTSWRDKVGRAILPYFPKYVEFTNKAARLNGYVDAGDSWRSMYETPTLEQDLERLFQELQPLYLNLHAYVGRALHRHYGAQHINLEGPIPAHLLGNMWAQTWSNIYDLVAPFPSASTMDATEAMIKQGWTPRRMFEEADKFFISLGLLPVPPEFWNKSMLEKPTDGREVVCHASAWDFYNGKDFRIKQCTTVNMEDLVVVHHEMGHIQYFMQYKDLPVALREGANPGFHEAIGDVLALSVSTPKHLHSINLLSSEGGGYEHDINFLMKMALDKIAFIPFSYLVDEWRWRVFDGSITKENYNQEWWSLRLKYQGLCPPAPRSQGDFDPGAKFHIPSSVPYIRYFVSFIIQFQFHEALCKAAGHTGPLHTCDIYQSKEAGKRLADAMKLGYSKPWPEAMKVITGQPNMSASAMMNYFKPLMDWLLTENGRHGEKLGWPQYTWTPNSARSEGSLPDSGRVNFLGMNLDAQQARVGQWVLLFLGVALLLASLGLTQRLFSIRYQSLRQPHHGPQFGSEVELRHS
# Assay type: tissue-based, Lung
# Details: not given
row,Compound,IC50
1,NC12CC3CC(CC(C3)C1)C2 [AMANTADINE],Not Active
2,C[C@H]1COc2c(N3CCN(C)CC3)c(F)cc3c(=O)c(C(=O)O)cn1c23.C[C@H]1COc2c(N3CCN(C)CC3)c(F)cc3c(=O)c(C(=O)O)cn1c23.O [LEVOFLOXACIN],Not Active
3,CCn1cc(C(=O)O)c(=O)c2cc(F)c(N3CCNC(C)C3)c(F)c21 (configuration not stated) [LOMEFLOXACIN],Not Active
4,CN(C)C(=N)NC(=N)N [METFORMIN],Not Active
5,CN(C)C(=O)Oc1cccc([N+](C)(C)C)c1.[Br-] [NEOSTIGMINE BROMIDE],Not Active
6,CN1C(=O)CN=C(c2ccccc2)c2cc([N+](=O)[O-])ccc21 [NIMETAZEPAM],Not Active
7,COc1ccc2c(c1OC)C(=O)O[C@@H]2[C@H]1c2c(cc3c(c2OC)OCO3)CCN1C [NOSCAPINE],Not Active
8,N=C(N)c1ccc(OCCCCCOc2ccc(C(=N)N)cc2)cc1 [PENTAMIDINE],Not Active
9,NNCCc1ccccc1 [PHENELZINE],Not Active
10,CCCNC(C)C(=O)Nc1ccccc1C (configuration not stated) [PRILOCAINE],Not Active
11,C[C@]12C=CC(=O)C=C1CC[C@H]1[C@@H]3C[C@@H](O)[C@](O)(C(=O)CO)[C@@]3(C)C[C@H](O)[C@@]12F [TRIAMCINOLONE],Not Active
12,CCN(C(C)=O)c1cccc(-c2ccnc3c(C#N)cnn23)c1 [ZALEPLON],Not Active

# Biological target: Cytochrome P450 3A4 (Homo sapiens, UniProt P08684); further: in other assays of this panel Not Active means under 50% inhibition at 10 µM
# Details: bti-tn-5b1-4
# Sequence of Cytochrome P450 3A4 (P08684 whole entry): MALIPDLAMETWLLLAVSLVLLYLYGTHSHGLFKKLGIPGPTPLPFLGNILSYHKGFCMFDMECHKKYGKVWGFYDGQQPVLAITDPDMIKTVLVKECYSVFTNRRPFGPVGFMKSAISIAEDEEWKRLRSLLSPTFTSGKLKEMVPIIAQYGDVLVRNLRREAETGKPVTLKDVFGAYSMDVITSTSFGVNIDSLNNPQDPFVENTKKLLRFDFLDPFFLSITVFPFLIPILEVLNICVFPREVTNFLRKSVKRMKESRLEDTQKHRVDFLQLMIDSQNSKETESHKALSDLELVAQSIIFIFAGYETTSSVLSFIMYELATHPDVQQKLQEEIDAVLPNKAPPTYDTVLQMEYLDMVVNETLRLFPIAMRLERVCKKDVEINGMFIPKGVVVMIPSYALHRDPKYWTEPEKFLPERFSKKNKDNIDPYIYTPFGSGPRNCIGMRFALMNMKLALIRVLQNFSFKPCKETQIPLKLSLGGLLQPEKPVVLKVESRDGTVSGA
Compound,IC50,Ki
CCn1cc(C(=O)O)c(=O)c2cc(F)c(N3CCNC(C)C3)c(F)c21 (configuration not stated) [LOMEFLOXACIN],Not Active,Not Active
CN(C)C(=N)NC(=N)N [METFORMIN],Not Active,Not Active
CN(C)C(=O)Oc1cccc([N+](C)(C)C)c1.[Br-] [NEOSTIGMINE BROMIDE],Not Active,Not Active
CN1C(=O)CN=C(c2ccccc2)c2cc([N+](=O)[O-])ccc21 [NIMETAZEPAM],Not Active,Not Active
COc1ccc2c(c1OC)C(=O)O[C@@H]2[C@H]1c2c(cc3c(c2OC)OCO3)CCN1C [NOSCAPINE],Not Active,Not Active
CCCNC(C)C(=O)Nc1ccccc1C (configuration not stated) [PRILOCAINE],Not Active,Not Active
C[C@]12C=CC(=O)C=C1CC[C@H]1[C@@H]3C[C@@H](O)[C@](O)(C(=O)CO)[C@@]3(C)C[C@H](O)[C@@]12F [TRIAMCINOLONE],Not Active,Not Active
CCN(C(C)=O)c1cccc(-c2ccnc3c(C#N)cnn23)c1 [ZALEPLON],Not Active,Not Active

# System: not listed separately
# Assay: DRUGMATRIX: Serotonin (5-Hydroxytryptamine) 5-HT3 radioligand binding (ligand: [3H] GR-65630)
# Assay type: cell membranes, Membrane
# Details: hek293; Not Active = under 50% inhibition at 10 µM
Compound,IC50,Ki
NC12CC3CC(CC(C3)C1)C2 [AMANTADINE],Not Active,Not Active
C[C@H]1COc2c(N3CCN(C)CC3)c(F)cc3c(=O)c(C(=O)O)cn1c23.C[C@H]1COc2c(N3CCN(C)CC3)c(F)cc3c(=O)c(C(=O)O)cn1c23.O [LEVOFLOXACIN],Not Active,Not Active
CCn1cc(C(=O)O)c(=O)c2cc(F)c(N3CCNC(C)C3)c(F)c21 (configuration not stated) [LOMEFLOXACIN],Not Active,Not Active
CN(C)C(=N)NC(=N)N [METFORMIN],Not Active,Not Active
CN(C)C(=O)Oc1cccc([N+](C)(C)C)c1.[Br-] [NEOSTIGMINE BROMIDE],Not Active,Not Active
CN1C(=O)CN=C(c2ccccc2)c2cc([N+](=O)[O-])ccc21 [NIMETAZEPAM],Not Active,Not Active
COc1ccc2c(c1OC)C(=O)O[C@@H]2[C@H]1c2c(cc3c(c2OC)OCO3)CCN1C [NOSCAPINE],Not Active,Not Active
N=C(N)c1ccc(OCCCCCOc2ccc(C(=N)N)cc2)cc1 [PENTAMIDINE],Not Active,Not Active
NNCCc1ccccc1 [PHENELZINE],Not Active,Not Active
CCCNC(C)C(=O)Nc1ccccc1C (configuration not stated) [PRILOCAINE],Not Active,Not Active
C[C@]12C=CC(=O)C=C1CC[C@H]1[C@@H]3C[C@@H](O)[C@](O)(C(=O)CO)[C@@]3(C)C[C@H](O)[C@@]12F [TRIAMCINOLONE],Not Active,Not Active
CCN(C(C)=O)c1cccc(-c2ccnc3c(C#N)cnn23)c1 [ZALEPLON],Not Active,Not Active
